Like-named read-outs stand apart in the source and are kept apart here.
How the values were obtained:
Format in all cases: in vivo
Geranium pusillum = experiment: Greenhouse pre-emergence (PRE) herbicidal test on GERPU; settings: Geranium pusillum, pre-emergence, PRE; GERPU; use rate 8 gai/ha
Procedure, shortened: (§1)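 Damage was rated visually on a 0 to 100 scale at 20 days after treatment, where 0 meant normal growth and 100 meant no emergence or complete kill of above-ground parts. Compounds were applied in water to freshly sown loamy-sand pots.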

Lolium multiflorum = experiment: Greenhouse pre-emergence (PRE) herbicidal test on LOLMU
Procedure, shortened: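 Visual 0–100 rating at 20 days after treatment; 0 = normal growth, 100 = no emergence or complete kill of shoots. Pre-emergent application to seeded pots of loamy sand (~3.0% humus), species-dependent temperature 10-25° C or 20-35° C.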

Setaria viridis = experiment: Greenhouse pre-emergence (PRE) herbicidal test on SETVI; settings: Setaria viridis, pre-emergence
Procedure, shortened: as §1

Abutilon theophrasti = experiment: Greenhouse post-emergence (POST) herbicidal test on ABUTH; settings: Abutilon theophrasti, post-emergence
Procedure, shortened: (§2)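 For this test, compounds formulated as a 5% by weight emulsion concentrate were diluted into spray liquor and applied post-emergence. Species were kept at 10-25° C or 20-35° C and injury was scored at 20 DAT on a 0–100 scale.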

Amaranthus retroflexus = experiment: Greenhouse post-emergence (POST) herbicidal test on AMARE; settings: Amaranthus retroflexus, post-emergence
Procedure, shortened: as §2

Echinochloa crus-galli = experiment: Greenhouse post-emergence (POST) herbicidal test on ECHCG; settings: Echinochloa crus-galli, post-emergence; for inhibition at 4 g/ha: use rate 4 gai/ha
Procedure, shortened: as §2

Euphorbia heterophylla = experiment: Greenhouse post-emergence (POST) herbicidal test on EPHHL; settings: Euphorbia heterophylla, post-emergence
Procedure, shortened: as §2

COc1c(Br)cc(F)c(F)c1Nc1nc(N)nc(C(C)(C)F)n1 [Compound I-2]
70%: pest or weed control at 2 g/ha (Setaria viridis; 432 h, PRE, SETVI, I-2 solo 2 gai/ha, 18 DAT) | pest or weed control at 8 g/ha (Amaranthus retroflexus; 432 h, POST, AMARE, I-2 solo 8 gai/ha, 18 DAT)
60%: inhibition at 8 g/ha (Lolium multiflorum; Lolium multiflorum, pre-emergence, PRE, LOLMU, use rate 8 gai/ha, read-out: % activity) | inhibition at 8 g/ha (Euphorbia heterophylla; 480 h, POST, EPHHL, use rate 8 gai/ha, 20 DAT, read-out: % activity)
50%: inhibition at 4 g/ha (Euphorbia heterophylla; 480 h, POST, EPHHL, use rate 4 gai/ha, 20 DAT)
15%: inhibition at 8 g/ha (Lolium multiflorum; Lolium multiflorum, pre-emergence, 480 h, LOLMU PRE, 20 DAT, use rate 8 gai/ha, read-out: % activity) | inhibition at 2 g/ha (Lolium multiflorum; Lolium multiflorum, pre-emergence, 480 h, PRE, LOLMU, 2 gai/ha, 20 DAT, read-out: % activity solo application) | inhibition at 2 g/ha (Lolium multiflorum; Lolium multiflorum, pre-emergence, 480 h, PRE, LOLMU, use rate 2 gai/ha, 20 DAT, read-out: solo application % activity) | inhibition at 2 g/ha (Abutilon theophrasti; 480 h, POST, ABUTH, 2 gai/ha, 20 DAT, read-out: % activity solo application) | pest or weed control at 8 g/ha (Echinochloa crus-galli; 432 h, POST, ECHCG, I-2 solo 8 gai/ha, 18 DAT)
40%: inhibition at 2 g/ha (Lolium multiflorum; Lolium multiflorum, pre-emergence, PRE, LOLMU, use rate 2 gai/ha, read-out: % activity) | inhibition at 8 g/ha (Abutilon theophrasti; 480 h, POST, ABUTH, 8 gai/ha, 20 DAT, read-out: % activity solo application) | inhibition at 8 g/ha (Abutilon theophrasti; 480 h, POST, ABUTH, use rate 8 gai/ha, 20 DAT, read-out: solo application % activity) | inhibition at 2 g/ha (Amaranthus retroflexus; 480 h, POST, AMARE, 2 gai/ha, 20 DAT, read-out: % activity solo application) | inhibition at 2 g/ha (Amaranthus retroflexus; 480 h, POST, AMARE, use rate 2 gai/ha, 20 DAT, read-out: solo application % activity)
90%: inhibition at 8 g/ha (Lolium multiflorum; Lolium multiflorum, pre-emergence, 480 h, PRE, LOLMU, 8 gai/ha, 20 DAT, read-out: % activity solo application)
25%: inhibition at 2 g/ha (Setaria viridis; 480 h, PRE, SETVI, 2 gai/ha, 20 DAT, read-out: % activity solo application) | inhibition at 4 g/ha (Echinochloa crus-galli; POST, ECHCG) | pest or weed control at 2 g/ha (Euphorbia heterophylla; 432 h, POST, EPHHL, I-2 solo 2 gai/ha, 18 DAT)
75%: inhibition at 8 g/ha (Amaranthus retroflexus; 480 h, POST, AMARE, 8 gai/ha, 20 DAT, read-out: % activity solo application) | inhibition at 2 g/ha (Amaranthus retroflexus; 480 h, POST, use rate 2 gai/ha, 20 DAT, read-out: % activity)
0%: inhibition at 8 g/ha (Geranium pusillum) | pest or weed control at 2 g/ha (Lolium multiflorum; Lolium multiflorum, pre-emergence, 432 h, PRE, LOLMU, I-2 solo 2 gai/ha, 18 DAT, read-out: % activity) | pest or weed control at 2 g/ha (Echinochloa crus-galli; 432 h, POST, ECHCG, I-2 solo 2 gai/ha, 18 DAT) | inhibition at 2 g/ha (Echinochloa crus-galli; 480 h, ECHCG POST, 20 DAT, use rate 2 gai/ha, read-out: % activity) | inhibition at 4 g/ha (Echinochloa crus-galli; 480 h, POST, ECHCG, 20 DAT)
35%: inhibition at 2 g/ha (Lolium multiflorum; Lolium multiflorum, pre-emergence, LOLMU PRE, use rate 2 gai/ha, read-out: % activity)
55%: pest or weed control at 2 g/ha (Amaranthus retroflexus; 432 h, POST, AMARE, I-2 solo 2 gai/ha, 18 DAT)
10%: inhibition at 2 g/ha (Lolium multiflorum; Lolium multiflorum, pre-emergence, 480 h, LOLMU PRE, 20 DAT, use rate 2 gai/ha, read-out: % activity) | pest or weed control at 2 g/ha (Lolium multiflorum; Lolium multiflorum, pre-emergence, 480 h, PRE, 2 gai/ha, 20 DAT, read-out: % activity) | pest or weed control at 2 g/ha (Setaria viridis; 480 h, PRE, 2 gai/ha, 20 DAT) | inhibition at 2 g/ha (Setaria viridis; 480 h, SETVI PRE, 20 DAT, use rate 2 gai/ha, read-out: % activity) | inhibition at 2 g/ha (Setaria viridis; PRE, SETVI, use rate 2 gai/ha, read-out: % activity) | inhibition at 2 g/ha (Abutilon theophrasti; 480 h, ABUTH POST, 20 DAT, use rate 2 gai/ha, read-out: % activity) | pest or weed control at 2 g/ha (Abutilon theophrasti; 480 h, POST, 2 gai/ha, 20 DAT) | inhibition at 2 g/ha (Euphorbia heterophylla; 480 h, EPHHL POST, 20 DAT, use rate 2 gai/ha, read-out: % activity) | pest or weed control at 2 g/ha (Euphorbia heterophylla; 480 h, POST, 2 gai/ha, 20 DAT)
85%: inhibition at 8 g/ha (Lolium multiflorum; Lolium multiflorum, pre-emergence, 480 h, PRE, use rate 8 gai/ha, 20 DAT, read-out: % activity)
20%: inhibition at 2 g/ha (Lolium multiflorum; Lolium multiflorum, pre-emergence, 480 h, PRE, use rate 2 gai/ha, 20 DAT, read-out: % activity) | pest or weed control at 2 g/ha (Abutilon theophrasti; 432 h, POST, ABUTH, I-2 solo 2 gai/ha, 18 DAT) | pest or weed control at 8 g/ha (Abutilon theophrasti; 432 h, POST, ABUTH, I-2 solo 8 gai/ha, 18 DAT)
30%: % activity (Lolium multiflorum; LOLMU PRE, use rate 2 gai/ha) | pest or weed control at 8 g/ha (Lolium multiflorum; Lolium multiflorum, pre-emergence, 432 h, PRE, LOLMU, I-2 solo 8 gai/ha, 18 DAT) | inhibition at 4 g/ha (Setaria viridis; PRE, SETVI, use rate 4 gai/ha) | inhibition at 8 g/ha (Euphorbia heterophylla; 480 h, POST, EPHHL, 8 gai/ha, 20 DAT, read-out: % activity solo application)
65%: inhibition at 2 g/ha (Amaranthus retroflexus; 480 h, AMARE POST, 20 DAT, use rate 2 gai/ha, read-out: % activity) | inhibition at 8 g/ha (Amaranthus retroflexus; 480 h, AMARE POST, 20 DAT, use rate 8 gai/ha, read-out: % activity) | pest or weed control at 8 g/ha (Amaranthus retroflexus; 480 h, POST, 8 gai/ha, 20 DAT)

From patent US20260007133A1, “HERBICIDAL COMPOSITION COMPRISING AZINE COMPOUNDS” (BASF SE, priority 2022, published 2026)
